Measured values published in US6992079B2, “Substituted 11-phenyl-dibenzazepine compounds useful for the treatment or prevention of diseases characterized by abnormal cell proliferation” (President Fellows of Harvard College, priority 1997, dated 2006).

Legend:
Assay type in all cases: cell-based
SK-MEL-2B = assay: In-Vitro Testing SRB panel: Melanoma
OVCAR-4 = assay: In-Vitro Testing SRB panel: Ovarian Cancer
OVCAR-5 = assay: In-Vitro Testing SRB panel: Ovarian Cancer
OVCAR-8 = assay: In-Vitro Testing SRB panel: Ovarian Cancer
SN12C = assay: In-Vitro Testing SRB panel: Renal Cancer
TK-10 = assay: In-Vitro Testing SRB panel: Renal Cancer
DU-145 = assay: In-Vitro Testing SRB panel: Prostate Cancer
HS 578T = assay: In-Vitro Testing SRB panel: Breast Cancer; details: HS 578T
MDA-N = assay: In-Vitro Testing SRB panel: Breast Cancer
[1] = Homo sapiens, read-out: LC50 (the source's name)

COc1ccc2c(c1)CN(C(=O)c1ccc([N+](=O)[O-])cc1)c1ccc(Cl)cc1C2c1ccccc1Cl (centres unmarked) [Compound 30]
TGI (SK-MEL-2B; SK-MEL-28): >1.00E−04 Molar
Percent Growth (SK-MEL-2B; SK-MEL-28, Log10 concentration −4.0 Molar): 65%
Percent Growth (SK-MEL-2B; SK-MEL-28, Log10 concentration −5.0 Molar): 70%
Percent Growth (SK-MEL-2B; SK-MEL-28, Log10 concentration −6.0 Molar): 86%
Percent Growth (SK-MEL-2B; SK-MEL-28, Log10 concentration −7.0 Molar): 100%
Percent Growth (SK-MEL-2B; SK-MEL-28, Log10 concentration −8.0 Molar): 101%
GI50 (OVCAR-4; Homo sapiens, OVCAR-4): 1860 nM
CC50 (OVCAR-4; Homo sapiens, OVCAR-4, read-out: LC50 (the source's name)): > 100 µM
TGI (OVCAR-4; OVCAR-4): 9.89E−06 Molar
Percent Growth (OVCAR-4; OVCAR-4, Log10 concentration −4.0 Molar): −9%
Percent Growth (OVCAR-4; OVCAR-4, Log10 concentration −5.0 Molar): 0%
Percent Growth (OVCAR-4; OVCAR-4, Log10 concentration −6.0 Molar): 69%
Percent Growth (OVCAR-4; OVCAR-4, Log10 concentration −7.0 Molar): 103%
Percent Growth (OVCAR-4; OVCAR-4, Log10 concentration −8.0 Molar): 109%
GI50 (OVCAR-5; Homo sapiens, OVCAR-5): > 100 µM
CC50 (OVCAR-5; Homo sapiens, OVCAR-5, read-out: LC50 (the source's name)): > 100 µM
TGI (OVCAR-5; OVCAR-5): >1.00E−04 Molar
Percent Growth (OVCAR-5; OVCAR-5, Log10 concentration −4.0 Molar): 78%
Percent Growth (OVCAR-5; OVCAR-5, Log10 concentration −5.0 Molar): 86%
Percent Growth (OVCAR-5; OVCAR-5, Log10 concentration −6.0 Molar): 98%
Percent Growth (OVCAR-5; OVCAR-5, Log10 concentration −7.0 Molar): 106%
Percent Growth (OVCAR-5; OVCAR-5, Log10 concentration −8.0 Molar): 102%
GI50 (OVCAR-8; Homo sapiens, OVCAR-8): 7.72 µM
CC50 (OVCAR-8; Homo sapiens, OVCAR-8, read-out: LC50 (the source's name)): > 100 µM
TGI (OVCAR-8; OVCAR-8): >1.00E−04 Molar
Percent Growth (OVCAR-8; OVCAR-8, Log10 concentration −4.0 Molar): 48%
Percent Growth (OVCAR-8; OVCAR-8, Log10 concentration −5.0 Molar): 46%
Percent Growth (OVCAR-8; OVCAR-8, Log10 concentration −6.0 Molar): 84%
Percent Growth (OVCAR-8; OVCAR-8, Log10 concentration −7.0 Molar): 95%
Percent Growth (OVCAR-8; OVCAR-8, Log10 concentration −8.0 Molar): 96%
TGI (SN12C): >1.00E−04 Molar
GI50 (SN12C; Homo sapiens): 6.32 µM
CC50 (SN12C; [1]): > 100 µM
Percent Growth (SN12C; Log10 concentration −4.0 Molar): 45%
Percent Growth (SN12C; Log10 concentration −5.0 Molar): 41%
Percent Growth (SN12C; Log10 concentration −6.0 Molar): 87%
Percent Growth (SN12C; Log10 concentration −7.0 Molar): 90%
Percent Growth (SN12C; Log10 concentration −8.0 Molar): 100%
GI50 (TK-10; Homo sapiens, TK-10): 27 µM
CC50 (TK-10; Homo sapiens, TK-10, read-out: LC50 (the source's name)): > 100 µM
TGI (TK-10; TK-10): >1.00E−04 Molar
Percent Growth (TK-10; TK-10, Log10 concentration −4.0 Molar): 41%
Percent Growth (TK-10; TK-10, Log10 concentration −5.0 Molar): 57%
Percent Growth (TK-10; TK-10, Log10 concentration −6.0 Molar): 93%
Percent Growth (TK-10; TK-10, Log10 concentration −7.0 Molar): 101%
Percent Growth (TK-10; TK-10, Log10 concentration −8.0 Molar): 100%
TGI (DU-145; DU-145): >1.00E−04 Molar
Percent Growth (DU-145; DU-145, Log10 concentration −4.0 Molar): 31%
Percent Growth (DU-145; DU-145, Log10 concentration −5.0 Molar): 38%
Percent Growth (DU-145; DU-145, Log10 concentration −6.0 Molar): 95%
Percent Growth (DU-145; DU-145, Log10 concentration −7.0 Molar): 98%
Percent Growth (DU-145; DU-145, Log10 concentration −8.0 Molar): 98%
GI50 (DU-145; Homo sapiens, DU-145): 6.24 µM
CC50 (DU-145; Homo sapiens, DU-145, read-out: LC50 (the source's name)): > 100 µM
TGI (HS 578T): >1.00E−04 Molar
Percent Growth (HS 578T; Log10 concentration −4.0 Molar): 11%
Percent Growth (HS 578T; Log10 concentration −5.0 Molar): 51%
Percent Growth (HS 578T; Log10 concentration −6.0 Molar): 30%
Percent Growth (HS 578T; Log10 concentration −7.0 Molar): 91%
Percent Growth (HS 578T; Log10 concentration −8.0 Molar): 87%
CC50 (HS 578T; [1]): > 100 µM
TGI (MDA-N): >1.00E−04 Molar
CC50 (MDA-N; [1]): > 100 µM
Percent Growth (MDA-N; Log10 concentration −4.0 Molar): 51%
Percent Growth (MDA-N; Log10 concentration −5.0 Molar): 39%
Percent Growth (MDA-N; Log10 concentration −6.0 Molar): 83%
Percent Growth (MDA-N; Log10 concentration −7.0 Molar): 93%
Percent Growth (MDA-N; Log10 concentration −8.0 Molar): 101%
